molecular target: T1, Equilibrative nucleoside transporter 1 (Homo sapiens, UniProt Q99808); assay: Displacement of 5-(SAENTA)-X8-fluorescein from human ENT1 transporter in human K562 cells; type: cell-based
T1 sequence (Q99808 whole entry): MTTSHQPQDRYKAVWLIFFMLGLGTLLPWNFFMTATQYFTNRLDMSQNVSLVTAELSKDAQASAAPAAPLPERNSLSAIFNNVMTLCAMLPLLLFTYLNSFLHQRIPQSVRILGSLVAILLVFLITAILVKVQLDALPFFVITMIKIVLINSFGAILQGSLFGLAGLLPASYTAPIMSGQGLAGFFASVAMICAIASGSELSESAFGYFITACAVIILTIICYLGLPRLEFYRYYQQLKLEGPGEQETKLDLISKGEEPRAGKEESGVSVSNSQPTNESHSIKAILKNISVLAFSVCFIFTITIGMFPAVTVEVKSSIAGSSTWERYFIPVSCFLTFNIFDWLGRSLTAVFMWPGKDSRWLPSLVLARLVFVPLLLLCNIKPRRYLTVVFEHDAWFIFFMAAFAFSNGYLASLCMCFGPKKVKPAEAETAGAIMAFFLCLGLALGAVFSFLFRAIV

Row | Ki [µM] | Compound
1 | > 1 | O=[N+]([O-])c1cccc2c1CN(c1ncnc3c1nc1n3[C@@H]3O[C@H](CO1)[C@@H](O)[C@H]3O)CC2
2 | > 1 | O=[N+]([O-])c1ccc2c(c1)CCN(c1ncnc3c1nc1n3[C@@H]3O[C@H](CO1)[C@@H](O)[C@H]3O)C2
3 | > 1 | O=[N+]([O-])c1cccc2c1CCN(c1ncnc3c1nc1n3[C@@H]3O[C@H](CO1)[C@@H](O)[C@H]3O)C2
4 | 0.0189 | O=[N+]([O-])c1ccc2c(c1)CN(c1ncnc3c1nc1n3[C@@H]3O[C@H](CO1)[C@@H](O)[C@H]3O)CC2

molecular target: T1, Equilibrative nucleoside transporter 1; assay: Binding affinity to ENT1 transporter

Row | Compound | IC50 [µM]
5 | O=[N+]([O-])c1cccc2c1CN(c1ncnc3c1nc1n3[C@@H]3O[C@H](CO1)[C@@H](O)[C@H]3O)CC2 | 1740
6 | O=[N+]([O-])c1ccc2c(c1)CCN(c1ncnc3c1nc1n3[C@@H]3O[C@H](CO1)[C@@H](O)[C@H]3O)C2 | 245
7 | CCCCCNc1ncnc2c1ncn2[C@@H]1O[C@H](CO)[C@@H](O)[C@H]1O | 13.5
8 | OC[C@H]1O[C@@H](n2cnc3c(CSc4cccc(I)c4)ncnc32)[C@H](O)[C@@H]1O | 0.245
9 | O=[N+]([O-])c1ccc(CNc2ncnc3c2ncn3[C@H]2C[C@H](O)[C@@H](CO)O2)cc1 | 0.0158
10 | Cc1cccc(CSc2ncnc3c2ncn3[C@@H]2O[C@H](CO)[C@@H](O)[C@H]2O)c1 | 12
11 | CSc1ncnc2c1ncn2C1CCCCO1 (configuration not stated) | 275
12 | Nc1nc(SCCc2ccccc2)c2ncn([C@@H]3O[C@H](CO)[C@@H](O)[C@H]3O)c2n1 | 16.2
13 | OC[C@H]1O[C@@H](n2cnc3c(N4CCc5ccccc5C4)ncnc32)[C@H](O)[C@@H]1O | 1.82
14 | OC[C@H]1O[C@@H](n2cnc3c(CSc4cccc(F)c4)ncnc32)[C@H](O)[C@@H]1O | 0.2
15 | O=[N+]([O-])c1ccc(CNc2ncnc3c2ncn3[C@@H]2O[C@H](CO)[C@@H](O)[C@H]2O)c(Cl)c1 | 0.347
16 | OC[C@H]1O[C@@H](n2cnc3c(SCc4ccccc4)ncnc32)[C@H](O)[C@@H]1O [6-BENZYLTHIOINOSINE] | 1.7
17 | CC(C)CSc1nc(N)nc2c1ncn2[C@@H]1O[C@H](CO)[C@@H](O)[C@H]1O | 8.71
18 | Cc1cc(CNc2ncnc3c2ncn3[C@@H]2O[C@H](CO)[C@@H](O)[C@H]2O)ccc1[N+](=O)[O-] | 0.0871
19 | OC[C@H]1O[C@@H](n2cnc3c(CSc4ccc(F)cc4)ncnc32)[C@H](O)[C@@H]1O | 0.158
20 | C=CCSc1ncnc2c1ncn2[C@@H]1O[C@H](CO)[C@@H](O)[C@H]1O | 13.8
21 | OC[C@H]1O[C@@H](n2cnc3c(CSc4ccc(Cl)cc4)ncnc32)[C@H](O)[C@@H]1O | 0.251
22 | CCSc1ncnc2c1ncn2[C@@H]1O[C@H](CO)[C@@H](O)[C@H]1O | 57.5
23 | O=[N+]([O-])c1ccc2c(c1)CCN(c1ncnc3c1ncn3[C@@H]1O[C@H](CO)[C@@H](O)[C@H]1O)C2 | 0.182
24 | Cc1ccc([N+](=O)[O-])c(CNc2ncnc3c2ncn3[C@@H]2O[C@H](CO)[C@@H](O)[C@H]2O)c1 | 1.29
25 | OC[C@H]1O[C@@H](n2cnc3c(CSc4ccc(Br)cc4)ncnc32)[C@H](O)[C@@H]1O | 0.178
26 | CCCCn1cnc2c(SCc3ccccn3)nc(N)nc21 | 52.5
27 | Nc1nc(SCc2ccccc2[N+](=O)[O-])c2ncn([C@@H]3O[C@H](CO)[C@@H](O)[C@H]3O)c2n1 | 4.57
28 | CC(C)(C)c1ccc(SCc2ncnc3c2ncn3[C@@H]2O[C@H](CO)[C@@H](O)[C@H]2O)cc1 | 331

Row | Compound | IC50 [µM]
29 | N#Cc1ccc(SCc2ncnc3c2ncn3[C@@H]2O[C@H](CO)[C@@H](O)[C@H]2O)cc1 | 0.0813
30 | CSc1nc(N)nc2c1ncn2[C@@H]1O[C@H](CO)[C@@H](O)[C@H]1O | 204
31 | O=[N+]([O-])c1cc(Cl)ccc1CNc1ncnc2c1ncn2[C@@H]1O[C@H](CO)[C@@H](O)[C@H]1O | 46.8
32 | OC[C@H]1O[C@@H](n2cnc3c(CSc4ccc(Cl)cc4Cl)ncnc32)[C@H](O)[C@@H]1O | 0.0776
33 | O=[N+]([O-])c1cccc2c1CN(c1ncnc3c1ncn3[C@@H]1O[C@H](CO)[C@@H](O)[C@H]1O)CC2 | 3.63
34 | Nc1nc(SCc2ccccc2F)c2ncn([C@@H]3O[C@H](CO)[C@@H](O)[C@H]3O)c2n1 | 4.79
35 | CSc1ncnc2c1c(Br)cn2[C@@H]1O[C@H](CO)[C@@H](O)[C@H]1O | 115
36 | CSc1ncnc2c1ncn2[C@@H]1O[C@H](CO)[C@@H](O)[C@H]1O | 229
37 | OC[C@H]1O[C@@H](n2ccc3c(SCc4ccccc4)ncnc32)[C@H](O)[C@@H]1O | 5.25
38 | O=[N+]([O-])c1ccc2c(c1)CN(c1ncnc3c1nc1n3[C@@H]3O[C@H](CO1)[C@@H](O)[C@H]3O)CC2 | 0.331
39 | OC[C@H]1O[C@@H](n2cnc3c(SCCCc4ccccc4)ncnc32)[C@H](O)[C@@H]1O | 1.35
40 | CCCCn1cnc2c(SC)nc(N)nc21 | 219
41 | Cc1cccc(CSc2nc(N)nc3c2ncn3[C@@H]2O[C@H](CO)[C@@H](O)[C@H]2O)n1 | 11500
42 | CCCSc1nc(N)nc2c1ncn2CC(C)C | 63.1
43 | CCCn1cnc2c(SC(C)C)nc(N)nc21 | 145
44 | O=[N+]([O-])c1ccc(CNc2ncnc3c2ncn3[C@@H]2O[C@H](CCl)[C@@H](O)[C@H]2O)cc1 | 0.107
45 | Cc1ccc2ccccc2c1CSc1ncnc2c1ncn2[C@@H]1O[C@H](CO)[C@@H](O)[C@H]1O | 115
46 | OC[C@H]1O[C@@H](n2cnc3c(CSc4ccccc4Br)ncnc32)[C@H](O)[C@@H]1O | 2.4
47 | CC(C)c1ccc(CSc2ncnc3c2ncn3[C@@H]2O[C@H](CO)[C@@H](O)[C@H]2O)cc1 | 4.79
48 | Nc1nc(SCc2cccc([N+](=O)[O-])c2)c2ncn([C@@H]3O[C@H](CO)[C@@H](O)[C@H]3O)c2n1 | 0.178
49 | OC[C@H]1O[C@@H](n2cnc3c(NCc4ccccc4)ncnc32)[C@H](O)[C@@H]1O [N6-BENZYLADENOSINE] | 10.7
50 | OC[C@H]1O[C@@H](n2cnc3c(NCc4ccco4)ncnc32)[C@H](O)[C@@H]1O [KINETIN RIBOSIDE] | 36.3
51 | CC(=O)Nc1ccc(CNc2ncnc3c2ncn3[C@@H]2O[C@H](CO)[C@@H](O)[C@H]2O)cc1 | 0.182

The remaining lines, values ahead:

Row | IC50 [µM] | Compound
52 | 0.123 | OC[C@H]1O[C@@H](n2cnc3c(CSc4ccc(OC(F)(F)F)cc4)ncnc32)[C@H](O)[C@@H]1O
53 | 120 | CCCCn1cnc2c(SC(C)C)nc(N)nc21
54 | 447 | CC(=O)c1ccccc1Sc1nc(N)nc2c1ncn2[C@@H]1O[C@H](CO)[C@@H](O)[C@H]1O
55 | 0.0331 | O=[N+]([O-])c1ccc(O)c(CSc2ncnc3c2ncn3[C@@H]2O[C@H](CO)[C@@H](O)[C@H]2O)c1
56 | 34.7 | Nc1nc(SCc2ccccn2)c2ncn([C@@H]3O[C@H](CO)[C@@H](O)[C@H]3O)c2n1
57 | 3.02 | O=[N+]([O-])c1cccc2c1CCN(c1ncnc3c1ncn3[C@@H]1O[C@H](CO)[C@@H](O)[C@H]1O)C2
58 | 257 | CC(C)Nc1ncnc2c1ncn2[C@@H]1O[C@H](CO)[C@@H](O)[C@H]1O
59 | 63.1 | CCC(C)Sc1nc(N)nc2c1ncn2[C@@H]1O[C@H](CO)[C@@H](O)[C@H]1O (some centres not stated)
60 | 0.309 | CN(Cc1ccc([N+](=O)[O-])cc1)c1ncnc2c1ncn2[C@@H]1O[C@H](CO)[C@@H](O)[C@H]1O
61 | 0.617 | COc1ccc(SCc2ncnc3c2ncn3[C@@H]2O[C@H](CO)[C@@H](O)[C@H]2O)cc1
62 | 41.7 | CCCC(C)n1cnc2c(SCc3ccccn3)nc(N)nc21 (configuration not stated)
63 | 115 | COc1cccc(CNc2ncnc3c2ncn3[C@@H]2O[C@H](CO)[C@@H](O)[C@H]2O)c1
64 | 33.1 | Cc1cc(C)c(SCc2ncnc3c2ncn3[C@@H]2O[C@H](CO)[C@@H](O)[C@H]2O)c(C)c1
65 | 77.6 | OC[C@H]1O[C@@H](n2cc(I)c3c(Cl)ncnc32)[C@H](O)[C@@H]1O
66 | 0.0275 | O=[N+]([O-])c1ccc(CNc2ncnc3c2ncn3[C@@H]2O[C@H](CO)[C@@H](O)[C@H]2O)cc1
67 | 32.4 | OC[C@H]1O[C@@H](n2cnc3c(Nc4ccccc4)ncnc32)[C@H](O)[C@@H]1O [N6-PHENYLADENOSINE]

Row | IC50 [µM] | Compound
68 | 7410 | O=[N+]([O-])c1cccc2c1CCN(c1ncnc3c1nc1n3[C@@H]3O[C@H](CO1)[C@@H](O)[C@H]3O)C2
69 | 4.17 | Nc1ccc(CNc2ncnc3c2ncn3[C@@H]2O[C@H](CO)[C@@H](O)[C@H]2O)cc1
70 | 389 | OC[C@H]1O[C@@H](n2ccc3c(S)ncnc32)[C@H](O)[C@@H]1O
71 | 6.31 | OC[C@H]1O[C@@H](n2cnc3c(SC4CCCCC4)ncnc32)[C@H](O)[C@@H]1O
72 | 0.363 | OC[C@H]1O[C@@H](n2cnc3c(CSc4cccc(Br)c4)ncnc32)[C@H](O)[C@@H]1O
73 | 0.813 | COC(=O)c1ccc(SCc2ncnc3c2ncn3[C@@H]2O[C@H](CO)[C@@H](O)[C@H]2O)cc1
74 | 0.0219 | C[C@H]1O[C@@H](n2cnc3c(NCc4ccc([N+](=O)[O-])cc4)ncnc32)[C@H](O)[C@@H]1O
75 | 91.2 | CCCn1cnc2c(SCc3ccccn3)nc(N)nc21
76 | 1.15 | Nc1nc(SCc2ccc(F)cc2)c2ncn([C@@H]3O[C@H](CO)[C@@H](O)[C@H]3O)c2n1
77 | 6.31 | Cc1ccccc1CSc1ncnc2c1ncn2[C@@H]1O[C@H](CO)[C@@H](O)[C@H]1O
78 | 162 | CCSc1nc(N)nc2c1ncn2[C@@H]1O[C@H](CO)[C@@H](O)[C@H]1O
79 | 234 | CC(C)CCNc1ncnc2[nH]ncc12
80 | 0.282 | OC[C@H]1O[C@@H](n2cnc3c(CSc4ccccc4I)ncnc32)[C@H](O)[C@@H]1O
81 | 0.977 | O=[N+]([O-])c1ccc(CNc2ncnc3c2ncn3[C@@H]2O[C@H](CO)C[C@H]2O)cc1
82 | 0.708 | O=[N+]([O-])c1cc(CNc2ncnc3c2ncn3[C@@H]2O[C@H](CO)[C@@H](O)[C@H]2O)ccc1Cl
